Results: patent US7038074B2, “Arginine mimetics as factor Xa inhibitors” (Wilex AG, priority 2000, dated 2006)
pKi: −log10 of the molar value. Entries after “also recorded” stand apart in the source; their conditions may differ. Where two headings read alike, the source gives them in different places.

Tests used:
[1] = target: factor Xa; settings: prior art, Gabriel et al. 1998; cited from earlier work
[2] = system: factor Xa; experiment: Determining the inhibitor constants (Ki, Dixon), factor Xa; format: biochemical, bovine or human
Experimental: (§1) The measurements were carried out at 25° C. on a microplate reader (MR 5000, Dynatech, Denkendorf, Germany). The test medium consisted of 200 μl of Tris buffer (0.05 M; 0.154 M NaCl, 5% ethanol, pH 8.0), 25 μl of aqueous substrate solution and 50 μl of enzyme solution. Two concentrations of the substrate and five concentrations of the inhibitor were used. Three minutes after adding the enzyme, 25 μl of acetic acid (50%) were added in order to quench the reaction and the optical density was measured at 405 nm. The Ki values were calculated in accordance with Dixon (M. Dixon (1953), Biochem. J. 55, 170–171) using a linear regression. The Ki values given in FIGS. 2 and 3 are means of at least three determinations.
(§2) The following enzymes and the corresponding substrates were used at the given final concentrations: bovine thrombin, prepared in accordance with Walsmann (P. Walsmann (1968), Pharmazie 23, 401–402) (2 262 U/mg, final concentration 0.45 U/ml), substrate MeSO2-D-hexahydrotyrosyl-Gly-Arg-pNA (final concentration 0.18 and 0.09 mM); bovine factor Xa (5 U/vial, 0.11 U/ml; Diagnostic Reagents Ltd., Thame, UK), substrate MeSO2-D-Nle-Gly-Arg-pNA (0.36 and 0.18 mM); human factor Xa (0.18 μg/ml; Kordia Lab. Supplies, Leiden, Netherlands), substrate as for bovine factor Xa human plasmin (0.67 CTA U/mg, 0.06 CTA U/ml; Behringwerke AG, Marburg, Germany), substrate Tos-Gly-Pro-Lys-pNA (0.18 and 0.09 mM); human uPA (500 000 U/vial, final concentration 150 U/ml; Ribosepharm GmbH Haan, Germany), substrate Bz-βAla-Gly-Arg-pNA (0.18 and 0.09 mM); bovine pancreas trypsin (42 U/mg, 0.0038 U/ml; Serva, Heidelberg, Germany), substrate MeSO2-D-hexahydrotyrosyl-Gly-Arg-pNA (0.18 and 0.06 mM).

[3] = target: T1, human uPA (Homo sapiens, UniProt P00749); experiment: Determining the inhibitor constants, uPA; format: biochemical
T1 construct: purchased Ribosepharm GmbH Haan, Germany
Experimental: as §1, §2

[4] = Chemical and enzymic stability, stability towards acids; format: physicochemical; settings: for example stomach acids
[5] = target: T2, bovine thrombin (Bos taurus, UniProt P00735); experiment: Determining the inhibitor constants, thrombin; format: biochemical
T2 construct: converts the zymogen prothrombin into its active form thrombin; made in house
Experimental: as §1, with “determinations. […]” for “determinations.”

[6] = target: T3, bovine pancreas trypsin (Bos taurus, UniProt P00760); experiment: Determining the inhibitor constants, trypsin; format: biochemical
T3 construct: purchased Serva, Heidelberg, Germany; host or cells: bovine pancreas
T3 sequence (P00760 24-246): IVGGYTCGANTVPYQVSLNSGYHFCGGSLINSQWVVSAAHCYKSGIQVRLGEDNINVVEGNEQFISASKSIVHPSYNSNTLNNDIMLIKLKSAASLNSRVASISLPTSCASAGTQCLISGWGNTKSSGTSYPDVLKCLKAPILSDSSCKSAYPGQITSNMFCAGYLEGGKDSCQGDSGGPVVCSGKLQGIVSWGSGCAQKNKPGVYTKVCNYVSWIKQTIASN
Experimental: as §1, §2

[7] = target: T4, factor Xa (UniProt P00743); experiment: Determining the inhibitor constants (Ki, Dixon), factor Xa; format: biochemical, bovine or human; settings: for pKi: 25° C., pH 8.0, species of factor Xa not given
T4 construct: Ki factor Xa; other: 25° C., pH 8.0; factor Xa activity of the D-enantiomer relative to the L-enantiomer 27; other: compound 28 versus compound 27; other: relative to compound 31
Experimental: as §1, §2

SMILES	inhibitory effect on factor Xa (in words) [2]	inhibition of / affinity for trypsin (in words) [6]	inhibition of uPA (in words) [3]	also measured
CCOC(=O)C(Cc1ccc(C(=N)N)cc1)NC(=O)CNS(=O)(=O)c1ccc(C(=N)N)cc1 (racemic) [Compound 2, N^α-4-amidinobenzenesulfonylglycyl-D,L-4-amidinophenylalanine ethyl ester]				pKi [1]: 6.30
COC(=O)C(Cc1cccc(C(=N)N)c1)NC(=O)OC12CC3CC(CC(C3)C1)C2.Cl (racemic) [Compound 11, N-1-adamantyloxycarbonyl-D,L-3-amidinophenylalanine methyl ester hydrochloride]				selectivity for factor Xa vis-à-vis uPA, thrombin and trypsin [2]: remarkable selectivity; inhibitory effect on factor Xa (in words) ([2]; hydrochloride): significantly increased inhibitory effect; also recorded: submicromolar inhibition
COC(=O)C(Cc1cccc(C(=N)N)c1)NC(=O)NC12CC3CC(CC(C3)C1)C2.Cl (racemic) [Compound 12, N-1-adamantylaminocarbonyl-D,L-3-amidinophenylalanine methyl ester hydrochloride]			dramatic effects on the inhibition of uPA	stability (acids; chemical and enzymic) [4]: desirable stability towards acids
Cl.N=C(N)c1cccc(CC(NC(=O)OC23CC4CC(CC(C4)C2)C3)C(=O)O)c1 (racemic) [Compound 15, N-1-adamantyloxylcarbonyl-D,L-3-amidinophenylalanine hydrochloride]	does not show any important differences			
COC(=O)C(Cc1ccc(NC(=N)N)cc1)NC(=O)OC12CC3CC(CC(C3)C1)C2.Cl (racemic) [Compound 26, N-1-adamantyloxycarbonyl-D,L-4-guanidinophenylalanine methyl ester hydrochloride]	dramatic loss in inhibitory activity	dramatic loss in inhibitory activity	dramatic loss in inhibitory activity	inhibition of thrombin (in words) [5]: dramatic loss in inhibitory activity
Cl.N=C(N)c1cccc(C[C@@H](NC(=O)OC23CC4CC(CC(C4)C2)C3)C(=O)NCCc2ccccc2)c1 [Compound 31, N-1-adamantyloxycarbonyl-D-3-amidinophenylalanine-(2-phenyl)-1-ethylamine hydrochloride]				pKi [7]: 7.13; inhibitory effect on factor Xa (in words) ([2]; hydrochloride): strongest inhibitor; inhibitory effect on factor Xa (in words) ([2]; listed as N-1-adamantyloxycarbonyl-D-3-amidinophenylalanine-(2-phenyl)-1-ethylamide, hydrochloride): very powerful inhibitory effect
N=C(N)c1cccc(C[C@@H](NC(=O)NC23CC4CC(CC(C4)C2)C3)C(=O)NCCc2ccccc2)c1 [Compound 32, N-(1-adamantylaminocarbonyl)-D-3-amidinophenylalanine-(2-phenyl)-1-ethylamide]	even more powerful inhibitory effect			factor by which FXa is inhibited better than by compound 31 ([7]; relative to compound 31): 3

Continued, in another order:

inhibitory effect on factor Xa (in words) [2]	inhibition of / affinity for trypsin (in words) [6]	SMILES	inhibition of uPA (in words) [3]	also measured
does not show any important differences		Cl.N=C(N)c1cccc(CC(NC(=O)OC23CC4CC(CC(C4)C2)C3)C(=O)N2CCCCC2)c1 [Compound 17, N-1-adamantyloxycarbonyl-D,L-3-amidinophenylalanine piperidide hydrochloride]		
	almost identical affinity	COC(=O)[C@H](Cc1cccc(C(=N)N)c1)NC(=O)OC12CC3CC(CC(C3)C1)C2.Cl [Compound 27, N-1-adamantyloxycarbonyl-L-3-amidinophenylalanine methyl ester hydrochloride]	only capable of recognizing the L-enantiomer	
	almost identical affinity	COC(=O)[C@@H](Cc1cccc(C(=N)N)c1)NC(=O)OC12CC3CC(CC(C3)C1)C2.Cl [Compound 28, N-1-adamantyloxycarbonyl-D-3-amidinophenylalanine methyl ester hydrochloride]	only capable of recognizing the L-enantiomer	pKi [7]: 6.41; factor Xa activity of the D-enantiomer relative to the L-enantiomer 27 ([7]; compound 28 versus compound 27): about 10 times
